What was measured:
[1] = target: T1, mCherry-^FIREtag / ^FIREmate-ECFP-Giantin (Halorhodospira halophila, UniProt P16113, A30V/C69G/D97P/F96I, form not given/G21E/G25R/K17N/M100R/M109L/Q41L/Q99S/S72T/T101G/V83A/Y94W/Y98T); test: Reversibility of the ternary assembly (washout), time-lapse spinning-disk confocal microscopy, HeLa cells; assay type: cell-based; settings: 10 μM
T1 construct: FIREmate-ECFP-Giantin(3131-3259) and mCherry-FIREtag in HeLa cells
T1 sequence (P16113 1-114 A30V/C69G/D97P/F96I/G21E/G25R/K17N/M100R/M109L/Q41L/Q99S/S72T/T101G/V83A/Y94W/Y98T): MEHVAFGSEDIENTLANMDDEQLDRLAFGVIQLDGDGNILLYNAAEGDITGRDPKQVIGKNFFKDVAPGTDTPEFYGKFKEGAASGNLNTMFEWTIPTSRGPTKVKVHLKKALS
Protocol: HeLa cells co-expressing mCherry-^FIREtag and ^FIREmate-ECFP-Giantin were treated with 10 μM HBR-2,5DM (match1), washed with HBR-2,5DM-free medium and then treated with 10 μM HBIR-3M. Cells were imaged by time-lapse spinning-disk confocal microscopy. FIGS. 9A-D are sets of representative confocal micrographs of untreated cells (9A), cells after addition of HBR-2,5DM (match1) (9B), cells after washout of HBR-2,5DM (match1) (9C), and cells after addition of HBIR-3M (9D). (mCherry: ex/em 561/606-675 nm; FIRE: ex/em 488/508-570 nm). Scale bars are 10 μm.
To test whether formation of the fluorescent ternary assembly could be reversed though removal of the fluorogen, the fusion proteins mCherry-^FIREtag (red fluorescence) and ^FIREmate-ECFP-Giantin (blue fluorescence) were co-expressed in Hela cells (FIG. 9A). Formation of a fluorescent ternary assembly between ^FIREtag, ^FIREmate and HBR-2,5DM was induced by addition of 10 μM of HBR-2,5DM (FIG. 9B). […] The ability to reverse the fluorescence ternary assembly at will allowed to induce repeated catch and release cycles through sequential addition and removal of HBR-2,5DM. The ability to control protein proximity through addition and removal of a molecular inducer of proximity is unprecedented and opens great prospect to control the proximity of two proteins with high temporal resolution.

[2] = target: T2, mCherry-^FIREtag / ^FIREmate-ECFP-Cb5 (Halorhodospira halophila, UniProt P16113, A30V/C69G/D97P/F96I, form not given/G21E/G25R/K17N/M100R/M109L/Q41L/Q99S/S72T/T101G/V83A/Y94W/Y98T); test: Recruitment of cytoplasmic protein to the endoplasmic reticulum, HeLa cells; assay type: cell-based; settings: 10 μM
T2 construct: FIREmate-ECFP-Cb5(100-134) and mCherry-FIREtag in HeLa cells
T2 sequence (P16113 1-114 A30V/C69G/D97P/F96I/G21E/G25R/K17N/M100R/M109L/Q41L/Q99S/S72T/T101G/V83A/Y94W/Y98T): T1 sequence (P16113 1-114 A30V/C69G/D97P/F96I/G21E/G25R/K17N/M100R/M109L/Q41L/Q99S/S72T/T101G/V83A/Y94W/Y98T)
Protocol: FIGS. 7A-E illustrate the recruitment of cytoplasmic proteins to the endoplasmic reticulum with the proximity inducing system described herein. FIG. 7A is a representation of the experimental design wherein HeLa cells co-expressing mCherry-^FIREtag and ^FIREmate-ECFP-Cb5 were treated with 10 μM of match (either HBR-2,5DM or HMBR), and imaged by time-lapse confocal microscopy. FIGS. 7B-C are graphs showing the temporal evolution of the FIRE signal detected upon addition at 0 min of HBR-2,5DM (match1-7C) or HMBR (match2-7D). Data represents the mean values±SD of 17 cells from n=3 independent experiments (7B, D), or of 18 cells from n=3 independent experiments (7C, E). FIGS. 7D-E are sets of representative confocal micrographs of cells before (0 min) and after (5 min) addition of HBR-2,5DM (match1-7D) or HMBR (match2-7E) (mCherry: ex/em 561/606-675 nm; FIRE: ex/em 488/508-570 nm; ECFP: ex/em 445/455-499 nm). […] Scale bars are 20 μm.
The confocal micrographs were acquired on a Zeiss LSM 980 Laser Scanning Microscope equipped with a plan apochromat 63x/1.4 NA oil immersion objective. ZEN software was used to collect the data. The images were analyzed using Icy (2.4.0.0) and Fiji (Image J). In short, to track fluorescence signal in a specific organelle, a ROI (region of interest) was determined by masking the signal in the ECFP (Enhanced Cyan Fluorescent Protein) channel with the plug-in HK-means with the following parameters: intensity class equals 100, minimum object size (pixels or px) equals 500, maximum object size (px) equals 1500-3000. The signal intensity of the ROI was tracked over time for each channel by using plug-in Active Contours. The background signal was subtracted. Data were processed using GraphPad Prism v9.3.0.
To further evaluate the scope of the proximity inducing system described herein and show its versatility, ^FIREmate was anchored at the membrane of various organelles or cellular structures so that ^FIREmate faced the cytosol. ^FIREmate was thus fused: • to the N-terminus of the transmembrane domain (amino acid residues at positions 3131-3259) of Giantin for location at the cis-medial rims of the Golgi apparatus (FIG. 6A), • to the N-terminus of the transmembrane domain (amino acid residues at positions 100-134) of the cytochrome b5 (Cb5) for location at the endoplasmic reticulum membrane (FIG. 7A), and • to the C-terminus of the Lyn11 inner membrane targeting sequence for location at the plasma membrane (FIG. 8A).
For each construct, an ECFP was inserted between ^FIREmate and the other protein domain/sequence to monitor the localization of the resulting fusion protein (blue fluorescence). Each fusion protein was co-expressed in mammalian cells (HeLa cells or HEK293 cells as indicated) together with mCherry-^FIREtag (red fluorescence). […]

## Cc1cc(/C=C2\SC(=S)NC2=O)c(C)cc1O [HBR-2,5DM, (Z)-5-(4-hydroxy-2,5-dimethylbenzylidene)-2-thioxo-1,3-thiazolidin-4-one]
[1]; then washing with HBR-2,5DM-free medium
  dissociation of the fluorescent ternary assembly after washout: rapid dissociation of the fluorescent ternary assembly
[1]; then washout
  reversibility of the fluorescent ternary assembly: full reversibility
[2]
  FIRE signal at the endoplasmic reticulum: simultaneous appearance of green fluorescence
  translocation of mCherry-^FIREtag to the endoplasmic reticulum: rapid translocation of mCherry-^FIREtag to the organelle
